≈ marks a conversion by molar mass, not a printed value. Like-named read-outs stand apart in the source and are kept apart here.
Columns and labels:
Assay in all cases: MIC by broth microdilution (CLSI)
[1] = tested on: Vancomycin-resistant Enterococci (VRE) clinical isolate RBWH1; assay type: cell-based, Enterococcus; conditions: Enterococcus, VRE, read-out: MIC
Description: J. Path. Bact. […] Proc. Soc.
MIC assays were carried out in biological triplicates.
M100 Performance Standards for Antimicrobial Susceptibility Testing, 27th Edition.

[2] = tested on: Klebsiella pneumoniae strain MS6771; assay type: cell-based; conditions: Klebsiella pneumoniae, read-out: MIC
[3] = tested on: Streptococcus pneumoniae 23F; assay type: cell-based; conditions: Streptococcus pneumoniae, 23F, read-out: MIC
[4] = tested on: Methicillin-resistant Staphylococcus aureus (MRSA) strain USA300; conditions: for MIC: Staphylococcus aureus
Description: GAS HKU16, MRSA USA300, VRE RBWH1, Klebsiella pneumoniae strain MS6771, E. coli strain MS8345 and Streptococcus pneumoniae strain 23F were grown in Todd-Hewitt broth (THB) or agar with 1% yeast extract (THY) [Todd, E. W. & Hewitt, L. F. A new culture medium for the production of antigenic streptococcal haemolysin. […] Bacteria were routinely grown at 37° C. in ambient air.
MICs were determined by broth microdilution in accordance to CLSI guidelines (“Methods for Dilution Antimicrobial Susceptibility Tests for Bacteria That Grow Aerobically”, Clinical and Laboratory Standards Institute) [Clinical and Laboratory Standards Institute. […] For MRSA, VRE, Klebsiella pneumoniae and E. coli the assays were performed in MHB, and for GAS and Streptococcus pneumoniae MHB+2.5% lysed horse blood (LHB) was used. The bacterial inoculum was prepared by direct colony suspension aiming for 2-8×10^5 colony forming units (CFU)/mL bacteria per well. Antibiotics/compounds were serially diluted two-fold across the 96-well plate, the last column contained no antibiotics/compounds. The inoculum was added to the plate containing antibiotic/compound and incubated for 16-24 h at 35+/−2° C. […] MIC assays were carried out in biological triplicates.
Using Clinical and Laboratory Standards Institute guidelines for antimicrobial sensitivity testing [Clinical and Laboratory Standards Institute.

[5] = MS6771, K. pneumoniae, RA-HQ-12: 0 μM, Zn: 0 μM
[6] = MS6771, K. pneumoniae, RA-HQ-12: 16 μM, Zn: 64 μM
[7] = MS6771, K. pneumoniae, RA-HQ-12: 16 μM
[8] = MS6771, K. pneumoniae, Zn: 64 μM
[9] = MS6771, Klebsiella pneumoniae, CQ: 0 μM, Zinc: 0 μM
[10] = MS6771, Klebsiella pneumoniae, CQ: 64 μM, Zinc: 256 μM
[11] = MS6771, Klebsiella pneumoniae, CQ: 64 μM
[12] = MS6771, Klebsiella pneumoniae, PBT2: 0 μM, Zinc: 0 μM
[13] = MS6771, Klebsiella pneumoniae, PBT2: 64 μM, Zinc: 256 μM
[14] = MS6771, Klebsiella pneumoniae, PBT2: 64 μM
[15] = MS6771, Klebsiella pneumoniae, Zinc: 256 μM (CQ panel)
[16] = MS6771, Klebsiella pneumoniae, Zinc: 256 μM (PBT2 panel)
[17] = MRSA|USA300, MRSA, RA-HQ-12: 0 μM, Zn: 0 μM, oxacillin with 2% NaCl

CC1(C)S[C@@H]2[C@H](NC(=O)[C@H](N)c3ccccc3)C(=O)N2[C@H]1C(=O)O [Ampicillin, ampicillin]
MIC ([1]; RA-HQ-12: 3.5 μM, Zn: […]): > 128 µg/mL | MIC ([1]; RA-HQ-12: 3.5 μM): > 128 µg/mL | MIC ([1]; Zn: […] (RA-HQ-12 panel)): > 128 µg/mL | MIC ([1]; RA-HQ-12: 0 μM, Zn: 0 μM): > 128 µg/mL | MIC [2, 5]: > 128 µg/mL | MIC [2, 6]: > 128 µg/mL | MIC [2, 7]: > 128 µg/mL | MIC [2, 8]: > 128 µg/mL | MIC [2, 9]: > 128 µg/mL | MIC [2, 10]: > 128 µg/mL | MIC [2, 11]: > 128 µg/mL | MIC [2, 12]: > 128 µg/mL | MIC [2, 13]: > 128 µg/mL | MIC [2, 14]: > 128 µg/mL | MIC [2, 15]: > 128 µg/mL | MIC [2, 16]: > 128 µg/mL | MIC ([3]; PBT2: 0 μM, Zinc: 0 μM): 8 µg/mL (≈ 22.9 µM) | MIC ([3]; PBT2: 8 μM, Zinc: 32 μM): 1 µg/mL (≈ 2.86 µM) | MIC ([3]; PBT2: 8 μM): 8 µg/mL (≈ 22.9 µM) | MIC ([3]; Zinc: 32 μM): 8 µg/mL (≈ 22.9 µM) | antibiotic sensitivity of resistant strain ([4]; MRSA USA300, addition of sub-inhibitory PBT2+zinc(II) ions): became sensitive | MIC ([4]; MRSA USA300, CQ: 0 μM, Zinc: 0 μM): > 128 µg/mL | MIC ([4]; MRSA USA300, CQ: 1 μM): > 128 µg/mL | MIC ([4]; MRSA USA300, CQ: 1 μM, Zinc: 32 μM): 1 µg/mL (≈ 2.86 µM) | MIC ([4]; MRSA USA300, PBT2: 0 μM, Zinc: 0 μM): > 128 µg/mL | MIC ([4]; MRSA USA300, PBT2: 2 μM): > 128 µg/mL | MIC ([4]; MRSA USA300, PBT2: 2 μM, Zinc: 50 μM): 2 µg/mL (≈ 5.72 µM) | MIC ([4]; MRSA USA300, Zinc: 32 μM): > 128 µg/mL | MIC ([4]; MRSA USA300, Zinc: 50 μM): > 128 µg/mL | MIC [4, 17]: > 128 µg/mL | MIC ([4]; MRSA|USA300, MRSA, RA-HQ-12: 3.5 μM, Zn: […], oxacillin with 2% NaCl): > 128 µg/mL | MIC ([4]; MRSA|USA300, MRSA, RA-HQ-12: 3.5 μM, oxacillin with 2% NaCl): > 128 µg/mL

CN(C)[C@@H]1C(O)=C(C(N)=O)C(=O)[C@@]2(O)C(O)=C3C(=O)c4c(O)cccc4[C@@](C)(O)[C@H]3C[C@@H]12 [Tetracycline, tetracycline]
MIC ([1]; VRE RBWH1, CQ: 2.5 μM, Zinc: 32 μM): 1 to 2 µg/mL (≈ 2.25 to 4.5 µM) | MIC [2, 5]: 32 µg/mL (≈ 72 µM) | MIC [2, 6]: 32 µg/mL (≈ 72 µM) | MIC [2, 7]: 32 µg/mL (≈ 72 µM) | MIC [2, 8]: 32 µg/mL (≈ 72 µM) | MIC [2, 9]: 32 to 64 µg/mL (≈ 72 to 144 µM) | MIC [2, 10]: 4 to 8 µg/mL (≈ 9 to 18 µM) | MIC [2, 11]: 16 µg/mL (≈ 36 µM) | MIC [2, 12]: 16 to 32 µg/mL (≈ 36 to 72 µM) | MIC [2, 13]: 4 µg/mL (≈ 9 µM) | MIC [2, 14]: 8 µg/mL (≈ 18 µM) | MIC [2, 15]: 8 µg/mL (≈ 18 µM) | MIC [2, 16]: 8 µg/mL (≈ 18 µM) | MIC ([3]; PBT2: 0 μM, Zinc: 0 μM): 32 µg/mL (≈ 72 µM) | MIC ([3]; PBT2: 8 μM, Zinc: 32 μM): 1 µg/mL (≈ 2.25 µM) | MIC ([3]; PBT2: 8 μM): 32 µg/mL (≈ 72 µM) | MIC ([3]; Zinc: 32 μM): 32 µg/mL (≈ 72 µM) | MIC [4, 17]: 0.5 µg/mL (≈ 1.13 µM)

— patent publication US20200261440A1, “ZINC IONOPHORES AND USES THEREOF” (THE UNIVERSITY OF QUEENSLAND, priority 2017, published 2020)
